This passage reports Disease rate and melting point results from patent US9655362B2, “Fungicidal composition and method for controlling plant diseases” (ISHIHARA SANGYO KAISHA, LTD., priority 2003, dated 2017).

Values joined by “and” are separate entries in the source; they are usually repeats but may differ in a detail not shown here. Identical values can stand only once.

One data set relates to Erysiphe graminis. Description: Test on preventive effect against wheat powdery mildew. Also on record: key: % = treated/untreated average lesion area ×100. The data set is classed as in vivo. The procedure: Wheat (cultivar: […] After the chemical solution dried, conidia of Erysiphe graminis were dusted and inoculated and maintained in a constant temperature chamber at 20° C. […] The average lesion area in the non-treated plot was determined in the same manner as for the treated plot except that water was applied by a spray gun instead of the chemical solution. Disease rate=(a/b)×100 a: average lesion area in the treated plot b: average lesion area in the non-treated plot Theoretical values were calculated in accordance with the Colby's formula. The fungicidal composition of the present invention has a synergistic effect regarding the test on preventive effect against wheat powdery mildew, when the experimental value is lower than the theoretical value.

A further data set deals with Sphaerotheca cucurbitae. Description: Test on preventive effect against cucumber powdery mildew. The data set is classed as in vivo. The arrangement: scale not given here. The procedure:
Cucumber (cultivar: Suyo) was cultivated in a plastic pot having a diameter of 7.5 cm, and when it reached 1.5-leaf stage, 10 ml of a chemical solution having the compound of the present invention adjusted to a prescribed concentration, was applied by a spray gun. After the chemical solution dried, a suspension of conidia of Sphaerotheca cucurbitae was sprayed and inoculated and maintained in a constant temperature chamber at 20° C. From 6 to 11 days after the inoculation, the area of sporulation was investigated, and the disease rate was determined in the same manner as in Test Example 3, and the results are shown in Tables 54 to 96. The average lesion area in the non-treated plot was determined in the same manner as for the treated plot except that water was applied by a spray gun instead of the chemical solution.
Further, theoretical values by the Colby's formula are shown in brackets in Tables 54 to 96.

Setting [1] is: other fungicide alone, dose 1.6 g/ha.
Where [2] appears, read: other fungicide alone, concentration 31 ppm.
Setting [3] is: other fungicide alone, concentration 63 ppm.
Setting [4] is: Compound No. alone, concentration 16 ppm.
Where [5] appears, read: single agent, 4 ppm, area of sporulation 6 to 11 days after inoculation.
Setting [6] is: single agent, 8 ppm, area of sporulation 6 to 11 days after inoculation.
Setting [7] is: single agent, 1 ppm, area of sporulation 6 to 11 days after inoculation.
[8] abbreviates: single agent, 2 ppm, area of sporulation 6 to 11 days after inoculation.
Where [9] appears, read: other fungicide alone, dose 12.5 g/ha.
Setting [10] is: other fungicide alone, concentration 8 ppm.
The mark [11] stands for this setting: other fungicide alone, concentration 4 ppm.
The mark [12] stands for this setting: other fungicide alone, concentration 16 ppm.
Setting [13] is: other fungicide alone, dose 3.1 g/ha.
Where [14] appears, read: other fungicide alone, dose 6.3 g/ha.
Where [15] appears, read: other fungicide alone, concentration 2 ppm.

Consider `Fc1ccc([C@]2(Cn3cncn3)O[C@H]2c2ccccc2Cl)cc1` (racemic) [Epoxiconazole], for which, in the data set on Erysiphe graminis (setting [1]), the Disease rate is 100.

`CO/C=C(/C(=O)OC)c1ccccc1Oc1cc(Oc2ccccc2C#N)ncn1` [Azoxystrobin]: the Disease rate is 100 and 80.4 in the data set with Sphaerotheca cucurbitae (setting [2]); 100 in the data set with Sphaerotheca cucurbitae (setting [3]); 100 with Sphaerotheca cucurbitae (other fungicide alone, concentration 125 ppm).

As a reminder, the melting point is the temperature of the solid-liquid transition. Compound `COc1cc(C)c(C(=O)c2c(F)ncc(C)c2I)c(OC)c1OC` [Compound No. 18, 3-(2,3,4-trimethoxy-6-methylbenzoyl)-2-fluoro-4-iodo-5-methylpyridine] displayed a melting point of 140 to 141 °C.

In the case of `COc1cc(C)c(C(=O)c2c(OC)ncc(Br)c2Cl)c(OC)c1OC` [Compound No. 23, 3-(2,3,4-trimethoxy-6-methylbenzoyl)-5-bromo-4-chloro-2-methoxypyridine], the melting point lay in the range of 84 to 87 °C. In the data set on Sphaerotheca cucurbitae (Compound No. alone, concentration 2 ppm), the Disease rate is reported as 100. This compound also showed a Disease rate in the data set on Sphaerotheca cucurbitae (setting [4]) of 30.7. This compound also showed a Disease rate in the data set with Sphaerotheca cucurbitae (setting [5]) of 79.2. The Disease rate in the data set on Sphaerotheca cucurbitae (setting [6]) came to 19.8. In the data set on Sphaerotheca cucurbitae (single agent, 16 ppm, area of sporulation 6 to 11 days after inoculation), this compound yielded a Disease rate of 2.4.

Consider `COc1cc(C)c(C(=O)c2c(OC)ncc(Cl)c2C)c(OC)c1OC` [Compound No. 35, 3-(2,3,4-trimethoxy-6-methylbenzoyl)-5-chloro-2-methoxy-4-methylpyridine], for which the results for the Disease rate in the data set on Sphaerotheca cucurbitae (setting [4]), in the data set with Sphaerotheca cucurbitae (setting [7]) and with Sphaerotheca cucurbitae (setting [8]) were 80.4, 56.8 and 14.2, respectively.

`COc1cc(C)c(C(=O)c2c(Cl)cnc(Cl)c2C(F)(F)F)c(OC)c1OC` [Compound No. 39, 4-(2,3,4-trimethoxy-6-methylbenzoyl)-2,5-dichloro-3-trifluoromethylpyridine]: the melting point fell in the range of 106 to 109 °C. Besides, the Disease rate with Erysiphe graminis (Compound No. alone, dose 1.6 g/ha) stood at 58.8. For the same compound, the Disease rate in the data set with Sphaerotheca cucurbitae (setting [4]) is on record as 20. In the data set on Sphaerotheca cucurbitae (setting [5]), this compound returned a Disease rate of 32.0. In the data set on Sphaerotheca cucurbitae (setting [6]), this compound yielded a Disease rate of 14.2.

The compound `COc1cc(C)c(C(=O)c2c(OC)cnc(Cl)c2C(F)(F)F)c(OC)c1OC` [Compound No. 40, 4-(2,3,4-trimethoxy-6-methylbenzoyl)-2-chloro-3-trifluoromethyl-5-methoxypyridine] showed a melting point of 117 to 119 °C. In the data set on Sphaerotheca cucurbitae (setting [7]), this compound displayed a Disease rate of 71.0. Moreover, in the data set with Sphaerotheca cucurbitae (setting [8]), the Disease rate is 42.6.

`COc1cc(C)c(C(=O)c2c(OC)cncc2C(F)(F)F)c(OC)c1OC` [Compound No. 122, 4-(2,3,4-trimethoxy-6-methylbenzoyl)-3-methoxy-5-trifluoromethylpyridine]: the melting point lay in the range of 103 to 106 °C.

For the compound `Cc1ccc(-c2c(Cl)nc(C#N)n2S(=O)(=O)N(C)C)cc1` [Cyazofamid], the Disease rate with Sphaerotheca cucurbitae (setting [2]) and in the data set on Sphaerotheca cucurbitae (setting [3]) was 100 in each case.

`CC(C1CC1)C(O)(Cn1cncn1)c1ccc(Cl)cc1` (centres unmarked) [Cyproconazole]: the Disease rate in the data set on Erysiphe graminis (setting [9]) came out at 15.0.

Consider `CC(Cc1ccc(C(C)(C)C)cc1)CN1C[C@@H](C)O[C@@H](C)C1` (some centres unmarked) [Fenpropimorph], for which the Disease rate in the data set with Erysiphe graminis (other fungicide alone, dose 25 g/ha) was 100.

Take `O=c1c2cc(F)ccc2nc(-n2cncn2)n1-c1ccc(Cl)cc1Cl` [Fluquinconazole]: the Disease rate is recorded as 30.0 in the data set on Erysiphe graminis (other fungicide alone, dose 50 g/ha); 7.5 in the data set on Erysiphe graminis (other fungicide alone, dose 200 g/ha); 2.5 in the data set with Erysiphe graminis (other fungicide alone, dose 400 g/ha).

For `Clc1ccc(CSC(Cn2cncn2)=Nc2ccc(Cl)cc2Cl)cc1` [Imibenconazole], in the data set on Sphaerotheca cucurbitae (setting [10]), the Disease rate was found to be 100.

Take `CCCCCCCCCCCCc1ccc(S(=O)(=O)O)cc1.CCCCCCCCCCCCc1ccc(S(=O)(=O)O)cc1.CCCCCCCCCCCCc1ccc(S(=O)(=O)O)cc1.NC(N)=NCCCCCCCCNCCCCCCCCN=C(N)N` [Iminoctadine albesilate]: the Disease rate in the data set on Sphaerotheca cucurbitae (setting [11]) is 85.9 and 93.8; in the data set with Sphaerotheca cucurbitae (setting [10]) it was 83.9 and 60.7 and 45.0; in the data set with Sphaerotheca cucurbitae (setting [12]), 35.3 and 30.0 and 49.4.

`CC#Cc1cc(C)nc(Nc2ccccc2)n1` [Mepanipyrim] returned a Disease rate in the data set on Sphaerotheca cucurbitae (setting [10]) of 100.

As to `CC1(C)CCC(Cc2ccc(Cl)cc2)C1(O)Cn1cncn1` (centres unmarked) [Metconazole], the Disease rate in the data set on Erysiphe graminis (setting [1]) was 44.1; in the data set on Erysiphe graminis (setting [13]) it was 19.6; with Erysiphe graminis (setting [14]), 4.9.

`COc1cc(C)c(C(=O)c2c(OC)ccc(Br)c2C)c(OC)c1OC` [Metrafenone]: the figures for the Disease rate with Erysiphe graminis (setting [13]), in the data set on Erysiphe graminis (setting [14]) and with Erysiphe graminis (setting [9]) were 100, 80.0 and 60.0, respectively.

`CC1(C)COC(C)(CCCc2ccc(Cl)cc2)N1C(=O)n1ccnc1.CC1(C)COC(C)(CCCc2ccc(Cl)cc2)N1C(=O)n1ccnc1.O=C(O)/C=C/C(=O)O` (centres unmarked) [Oxpoconazole fumarate]: the Disease rate was 100 and 80.0 in the data set with Sphaerotheca cucurbitae (setting [10]); 100 and 60.0 in the data set on Sphaerotheca cucurbitae (setting [12]); 45.5 and 30.0 in the data set with Sphaerotheca cucurbitae (setting [2]).

On to `CC1(C)COC(C)(CCCc2ccc(Cl)cc2)N1C(=O)n1ccnc1` (centres unmarked) [Oxpoconazole], for which the Disease rate in the data set on Sphaerotheca cucurbitae (setting [6]) was 44.5.

`CCCC1COC(Cn2cncn2)(c2ccc(Cl)cc2Cl)O1` (centres unmarked) [Propiconazole]: the Disease rate was 100 with Erysiphe graminis (setting [13]) and 11.6 in the data set on Erysiphe graminis (setting [9]).

Turning to `CC(C)(C)C(O)(CCc1ccc(Cl)cc1)Cn1cncn1` (centres unmarked) [Tebuconazole], the Disease rate in the data set on Sphaerotheca cucurbitae (setting [15]) is listed as 56.8; in the data set on Sphaerotheca cucurbitae (setting [11]), 71.0.

`FC(F)C(F)(F)OCC(Cn1cncn1)c1ccc(Cl)cc1Cl` (centres unmarked) [Tetraconazole]: the Disease rate in the data set with Erysiphe graminis (setting [13]) worked out at 80.0; in the data set with Erysiphe graminis (setting [14]), 35.0; in the data set with Sphaerotheca cucurbitae (setting [15]), 56.8; with Sphaerotheca cucurbitae (setting [11]) it was 56.8.

On to `CC(C)(C)C(O)C(Oc1ccc(Cl)cc1)n1cncn1` (centres unmarked) [Triadimenol], for which the figures for the Disease rate in the data set with Erysiphe graminis (setting [13]) and in the data set with Erysiphe graminis (setting [9]) were 65 and 19.0, respectively.

Polyoxins: in the data set with Sphaerotheca cucurbitae (setting [2]), the Disease rate was 100 and 80.4 and 80.0.
